Results taken from patent US20050288292A1, “Pharmaceutical formulation and its use in the treatment of inner ear diseases” (priority 2002, published 2005).

Experiments:
[1] = test system: muscular tinnitus (myognathic tinnitus); experiment: Intravenous Caroverin in muscular (myognathic) tinnitus; format: in vivo; conditions: intravenous administration
Description: In addition, new trials by the inventor have shown that Caroverin is not indicated for the treatment of all forms of tinnitus. […] Muscular or myognathic tinnitus is identified by imparting an electrical charge to the chewing musculature, whereby the intensity and frequency of the symptoms of tinnitus can be altered. Myognathic tinnitus can substantially be caused to disappear when the tendon bundles of the middle ear musculature that operates the chain of auditory ossicles are surgically sectioned (tenotomy). The precise mechanism involved in this effect is still unclear.

[2] = test system: cochlear post-synaptic tinnitus; conditions: infusion; according to EP 0 542 689; cited from earlier work

CCN(CC)CCn1c(=O)c(Cc2ccc(OC)cc2)nc2ccccc21 [Caroverin, 1-diethylaminoethyl-3-(p-methoxybenzyl)-1,2-dihydro-quinoxaline-2-one]
response of muscular (myognathic) tinnitus [1]: not responsive
treatability of cochlear post-synaptic tinnitus [2]: treatable
